What all share (experiment): Competitive isoTOP-ABPP in situ (fragment-treated cells)
Holding throughout (assay type): cell-based

For test [1], the target named is cysteines in MDA-MB-231 and Ramos cells (Homo sapiens, UniProt Q13526). Conditions: 200 μM, insitu.
For test [2], the target named is cysteines in MDA-MB-231 and Ramos cells (Homo sapiens, UniProt P61978). To be noted: 200 μM, insitu.
The target of test [3] is T1, cysteines in MDA-MB-231 and Ramos cells (Homo sapiens, UniProt P13667).
T1 sequence (P13667 21-645): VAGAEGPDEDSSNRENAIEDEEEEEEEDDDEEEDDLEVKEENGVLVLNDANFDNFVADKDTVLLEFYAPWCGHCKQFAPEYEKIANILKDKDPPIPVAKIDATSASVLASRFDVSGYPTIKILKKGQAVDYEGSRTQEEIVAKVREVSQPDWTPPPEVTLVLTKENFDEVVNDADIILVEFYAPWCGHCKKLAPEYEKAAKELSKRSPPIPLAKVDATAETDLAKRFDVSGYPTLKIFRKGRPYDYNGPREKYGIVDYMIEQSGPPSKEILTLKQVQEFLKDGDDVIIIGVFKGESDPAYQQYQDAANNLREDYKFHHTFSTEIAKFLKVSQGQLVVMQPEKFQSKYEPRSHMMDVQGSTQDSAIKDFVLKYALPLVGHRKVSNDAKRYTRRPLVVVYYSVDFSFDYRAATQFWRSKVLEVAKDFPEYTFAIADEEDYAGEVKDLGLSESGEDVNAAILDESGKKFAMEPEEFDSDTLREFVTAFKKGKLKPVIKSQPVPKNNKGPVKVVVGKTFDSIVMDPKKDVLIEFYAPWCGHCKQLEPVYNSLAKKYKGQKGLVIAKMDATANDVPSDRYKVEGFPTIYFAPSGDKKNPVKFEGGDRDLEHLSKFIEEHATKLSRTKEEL
Conditions: 200 μM, insitu.

Test [4] addresses T2, cysteines in MDA-MB-231 and Ramos cells (Homo sapiens, UniProt Q13418).
T2 sequence (Q13418 1-452): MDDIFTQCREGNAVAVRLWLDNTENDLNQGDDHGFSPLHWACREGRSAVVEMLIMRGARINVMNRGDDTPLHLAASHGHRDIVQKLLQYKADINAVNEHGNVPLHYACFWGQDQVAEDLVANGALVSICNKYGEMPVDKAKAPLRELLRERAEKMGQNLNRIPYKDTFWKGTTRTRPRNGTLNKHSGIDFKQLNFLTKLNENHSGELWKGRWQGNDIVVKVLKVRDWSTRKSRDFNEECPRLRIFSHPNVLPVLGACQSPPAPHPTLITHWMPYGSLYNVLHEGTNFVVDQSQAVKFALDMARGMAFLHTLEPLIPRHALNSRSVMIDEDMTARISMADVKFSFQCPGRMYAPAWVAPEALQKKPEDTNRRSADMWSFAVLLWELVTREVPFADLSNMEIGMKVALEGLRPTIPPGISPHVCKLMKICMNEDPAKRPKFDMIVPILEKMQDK
To be noted: 200 μM, insitu.

For test [5], the target named is T3, cysteines in MDA-MB-231 and Ramos cells (Homo sapiens, UniProt Q9UMS0).
T3 sequence (Q9UMS0 10-254): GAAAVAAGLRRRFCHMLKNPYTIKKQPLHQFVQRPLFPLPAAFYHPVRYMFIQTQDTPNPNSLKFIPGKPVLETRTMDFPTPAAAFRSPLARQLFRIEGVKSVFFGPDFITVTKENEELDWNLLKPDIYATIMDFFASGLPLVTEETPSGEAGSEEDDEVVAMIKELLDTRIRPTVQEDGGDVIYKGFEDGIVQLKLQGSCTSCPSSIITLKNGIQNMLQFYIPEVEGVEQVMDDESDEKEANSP
Conditions: 200 μM, insitu, 231.

In test [6] the target is T4, cysteines in MDA-MB-231 and Ramos cells (Homo sapiens, UniProt Q96CM8).
T4 sequence (Q96CM8 42-615): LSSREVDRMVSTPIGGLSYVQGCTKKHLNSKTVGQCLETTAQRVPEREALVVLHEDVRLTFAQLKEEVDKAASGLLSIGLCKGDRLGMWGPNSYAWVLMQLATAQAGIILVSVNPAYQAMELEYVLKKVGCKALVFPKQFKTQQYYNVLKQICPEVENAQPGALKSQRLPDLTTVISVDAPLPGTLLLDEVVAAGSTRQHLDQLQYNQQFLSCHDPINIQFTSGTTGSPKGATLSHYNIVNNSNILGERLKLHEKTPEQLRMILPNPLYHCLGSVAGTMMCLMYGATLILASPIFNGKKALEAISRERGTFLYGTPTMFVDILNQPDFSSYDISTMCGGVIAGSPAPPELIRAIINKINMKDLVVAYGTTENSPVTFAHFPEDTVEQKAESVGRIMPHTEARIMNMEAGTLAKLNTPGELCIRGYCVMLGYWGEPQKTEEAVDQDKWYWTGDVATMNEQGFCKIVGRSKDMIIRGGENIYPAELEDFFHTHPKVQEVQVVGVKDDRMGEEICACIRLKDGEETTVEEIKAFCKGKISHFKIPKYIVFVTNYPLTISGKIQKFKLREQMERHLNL
To be noted: 200 μM, insitu, 231.

For test [7], the target named is T5, cysteines in MDA-MB-231 and Ramos cells (Homo sapiens, UniProt O95229).
T5 sequence (O95229 1-277): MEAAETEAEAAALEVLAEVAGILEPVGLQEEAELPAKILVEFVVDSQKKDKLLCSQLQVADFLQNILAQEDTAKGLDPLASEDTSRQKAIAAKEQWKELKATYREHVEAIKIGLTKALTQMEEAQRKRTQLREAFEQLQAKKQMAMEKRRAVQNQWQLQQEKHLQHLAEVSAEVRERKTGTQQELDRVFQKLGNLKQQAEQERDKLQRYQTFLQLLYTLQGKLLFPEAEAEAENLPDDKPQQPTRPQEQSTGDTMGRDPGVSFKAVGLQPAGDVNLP
To be noted: 200 μM, insitu.

Chain of cysteines in MDA-MB-231 and Ramos cells (Homo sapiens, UniProt Q13526) (Q13526 whole entry): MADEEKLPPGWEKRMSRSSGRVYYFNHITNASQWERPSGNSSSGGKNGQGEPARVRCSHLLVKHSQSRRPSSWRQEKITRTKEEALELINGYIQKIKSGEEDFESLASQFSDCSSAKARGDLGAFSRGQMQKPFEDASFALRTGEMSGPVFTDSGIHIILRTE

Consider `O=C(CCl)NCCc1c[nH]c2ccccc12` [compound 13], for which the “isoTOP-ABPP ratio Q13526_C113” value came out at 0.9 in test [1] (231) and 1.0 in test [1] (ramos). In addition, the “isoTOP-ABPP ratio P61978_C132” value in test [2] (231) and in test [2] (ramos) was 1.1 each time. Further, the “isoTOP-ABPP ratio P13667_C206” value in test [3] (231) was 1.1. Moreover, in test [3] (ramos), the “isoTOP-ABPP ratio P13667_C555” value came out at 2.0. The figures for the “isoTOP-ABPP ratio Q13418_C346” value in test [4] (231) and in test [4] (ramos) were 0.7 and 2.1, respectively. The “isoTOP-ABPP ratio Q9UMS0_C213” value in test [5] is 1.6. Further, in test [6], the “isoTOP-ABPP ratio Q96CM8_C64” value is reported as 1.4. The “isoTOP-ABPP ratio O95229_C54” value in test [7] (231) amounted to 0.8; in test [7] (ramos), 1.4.

In the case of `CC(C)CCOCCNC(=O)CCl` [compound 27], in test [1] (231), the “isoTOP-ABPP ratio Q13526_C113” value is listed as 0.5. The “isoTOP-ABPP ratio P61978_C132” value in test [2] (231) was 0.9. In test [3] (231), the “isoTOP-ABPP ratio P13667_C206” value is reported as 1.0 and the “isoTOP-ABPP ratio P13667_C555” value turned out to be 1.2. Further, the “isoTOP-ABPP ratio Q13418_C346” value in test [4] (231) was determined as 0.6. Further, in test [5], the “isoTOP-ABPP ratio Q9UMS0_C213” value came out at 1.3. For the same compound, in test [6], the “isoTOP-ABPP ratio Q96CM8_C64” value is 1.8. The “isoTOP-ABPP ratio O95229_C54” value in test [7] (231) was 0.5.

Consider `Cc1ccc(C=C(C#N)C(=O)NCCN2CCOCC2)cc1` [compound 41], for which, in test [1] (231), the “isoTOP-ABPP ratio Q13526_C113” value came out at 0.6. For the same compound, the “isoTOP-ABPP ratio P61978_C132” value in test [2] (231) is given as 0.9. In addition, in test [3] (231), the “isoTOP-ABPP ratio P13667_C206” value is given as 1.0 and the “isoTOP-ABPP ratio P13667_C555” value amounted to 1.0. The “isoTOP-ABPP ratio Q13418_C346” value in test [4] (231) is on record as 0.6. The “isoTOP-ABPP ratio Q9UMS0_C213” value in test [5] was 0.9. For the same compound, the “isoTOP-ABPP ratio Q96CM8_C64” value in test [6] was determined as 0.8. Further, the “isoTOP-ABPP ratio O95229_C54” value in test [7] (231) came out at 0.6.

Values taken from patent publication US10670605B2, “Cysteine reactive probes and uses thereof” (The Scripps Research Institute, priority 2015, dated 2020).
